# Measurements taken from PubChem BioAssay AID1963852 (Molecular Pharmacology Branch, DTP, NCI, 2024).
# “And” between values parts separate entries of the source, which are not always exact repeats. Equal values may be shown once.
# Test system: 282377-053-R-J1-PDC complex spheroid viability
# Assay: Anticancer human tumor 282377-053-R-J1-PDC patient-derived colon adenocarcinoma cell line growth inhibition [POLQ]
# Conditions: for viability, T/C: stronger effect = lower value
# Experimental: Multicellular complex tumor spheroid response to Polymerase (POL) inhibitors (novobiocin, ART-558, RP6685) in combination with a variety of drugs and investigational agents in selected tumor cell lines
# The POL inhibitors (novobiocin, ART-558, and RP6685) were evaluated both individually and in combination with standard of care and investigational anticancer small molecules within a complex spheroid model of solid tumors. . Complex spheroids include a stromal component modeled by human endothelial cells (HUVEC) and fibroblasts modeled by human mesenchymal stem cells (MSCs). The concentration ranges selected for each drug and investigational agent were based upon clinically achievable concentrations if the clinical Cmax of the agent was known.
# Compounds. The drugs and investigational agents: novobiocin (NSC847541), ART-558 (NSC835418), RP-6685 (NSC848927), peposertib (NSC802822), ceralasertib (NSC780249), elimusertib (NSC800525), camonsertib (NSC841442), AZD-1390 (NSC803789), olaparib (NSC753686), talazoparib (NSC767125), rucaparib (NSC756644), sotorasib (NSC818433), MRTX-1133 (NSC836407), SN-38 (NSC673596), topotecan (NSC609699), epotoside (NSC141540), doxorubicin (NSC123127), gemcitabine (NSC613327), 5-fluorouracil (NSC19893), paclitaxel (NSC125973), vemurafenib (NSC761431), MSA-2 (NSC828583), SN-011 (NSC837082), adavosertib (NSC754352), prexasertib (NSC758257), carboplatin (NSC241240) and oxaliplatin (NSC266046), were obtained from the National Cancer Institute (NCI) Developmental Therapeutics Program Chemical Repository (21). The FDA-approved anticancer drug set is available from the Developmental Therapeutics Program at https://dtp.cancer.gov/organization/dscb/obtaining/. […] The stock solutions were prepared in dimethyl sulfoxide (DMSO, Sigma-Aldrich, St. Louis, MO, cat. D2650), except for the platinum compounds which were prepared in saline (Quality Biological, Gaithersburg, MD, cat. 114-055-101), at 800-fold the tested concentration and stored at -70 degrees C prior to their use. All drugs and investigational agents were tested over a range starting from a high concentration at or near the clinical Cmax and decreasing in half-log increments. If the clinical Cmax for an agent had not been determined, the highest concentration tested was 10 microM, except for SN-38, which was tested at a high concentration of 1 microM.
# Cell Culture. All cells were maintained in an incubator at 37 degrees C and 5% CO2 with 95% humidity. The PDC lines were cultured according to standard operating procedures established by the NCI PDMR (https://pdmr.cancer.gov). Table 3 of the manuscript, lists the cell lines along with the number of the three cell types plated to form the mct-spheroids and media for tumor cell growth. After thawing, all PDC lines, except 997537-175-T-J1-PDC and 415267-285-R-J2-PDC, were cultured in Matrigel-coated flasks prepared with a working solution of 1X Ham's F-12 nutrient mix, without supplementation (Thermo Fisher Scientific, cat. 11765054), 100 U/mL penicillin-streptomycin (Thermo Fisher Scientific, cat. 15140122), and 2.5% Matrigel (Corning Inc., Corning, NY, cat. 354248) for the first three passages. The two PDC lines 997537-175-T-J1-PDC and 415267-285-R-J2-PDC were cultured on uncoated flasks. The 857933-349-R-J2-PDC line was cultured in 6C/Colon 1B media containing advanced DMEM/F-12 (Thermo Fisher Scientific, cat. 12634028), 10 mM HEPES (Thermo Fisher Scientific, cat. 15630080), 1X GlutaMAX supplement (Thermo Fisher Scientific, cat. 35050061), 0.1 mg/mL primocin (InvivoGen, San Diego, CA, cat. ant-pm-2), 10% defined fetal bovine serum, heat inactivated (HyClone Laboratories Inc., Logan, UT, cat. SH30070.03HI), 50% L-WRN conditioned media (ATCC, cat. CRL-3276), 1.25 mM N-Acetyl-L-cysteine (Sigma-Aldrich, cat. A9165), 10 mM nicotinamide (Sigma-Aldrich, cat. N0636), 1X B-27 supplement (Thermo Fisher Scientific, cat. 17504044), 1X N-2 supplement (Thermo Fisher Scientific, cat. […]
# 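Note: spheroids exposed to compounds for seven days.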
# 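Throughout, for viability, T/C: 100% = DMSO vehicle control viability.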
structure (smiles),measurement,setting,value
CC[C@@]1(O)C(=O)OCc2c1cc1n(c2=O)Cc2cc3c(CN(C)C)c(O)ccc3nc2-1 + COC1C(OC(N)=O)C(O)C(Oc2ccc3c(O)c(NC(=O)c4ccc(O)c(CC=C(C)C)c4)c(=O)oc3c2C)OC1(C)C,IC50,"curve of first compound, second compound 0.0316 µM",> 0.1 µM
same,IC50,"curve of first compound, second compound 0.1 µM",> 0.1 µM
same,IC50,"curve of first compound, second compound 0.316 µM",> 0.1 µM
same,IC50,"curve of first compound, second compound 1 µM",> 0.1 µM
same,IC50,"curve of first compound, second compound 3.16 µM",> 0.1 µM
same,IC50,"curve of first compound, second compound 10 µM",> 0.1 µM
same,"viability, T/C","second compound 0.0316 µM, first compound 0.000316 µM",120%
same,"viability, T/C","second compound 0.0316 µM, first compound 0.001 µM",114%
same,"viability, T/C","second compound 0.0316 µM, first compound 0.00316 µM",119%
same,"viability, T/C","second compound 0.0316 µM, first compound 0.01 µM",99.6%
same,"viability, T/C","second compound 0.0316 µM, first compound 0.0316 µM",112%
same,"viability, T/C","second compound 0.0316 µM, first compound 0.1 µM",72%
same,"viability, T/C","second compound 0.1 µM, first compound 0.000316 µM",130%
same,"viability, T/C","second compound 0.1 µM, first compound 0.001 µM",106%
same,"viability, T/C","second compound 0.1 µM, first compound 0.00316 µM",116%
same,"viability, T/C","second compound 0.1 µM, first compound 0.01 µM",115%
same,"viability, T/C","second compound 0.1 µM, first compound 0.0316 µM",106%
same,"viability, T/C","second compound 0.1 µM, first compound 0.1 µM",64.6%
same,"viability, T/C","second compound 0.316 µM, first compound 0.000316 µM",106%
same,"viability, T/C","second compound 0.316 µM, first compound 0.001 µM",105%
same,"viability, T/C","second compound 0.316 µM, first compound 0.00316 µM",85.3%
same,"viability, T/C","second compound 0.316 µM, first compound 0.01 µM",100%
same,"viability, T/C","second compound 0.316 µM, first compound 0.0316 µM",110%
same,"viability, T/C","second compound 0.316 µM, first compound 0.1 µM",69.3%
same,"viability, T/C","second compound 1 µM, first compound 0.000316 µM",101%
same,"viability, T/C","second compound 1 µM, first compound 0.001 µM",112%
same,"viability, T/C","second compound 1 µM, first compound 0.00316 µM",131%
same,"viability, T/C","second compound 1 µM, first compound 0.01 µM",91.2%
same,"viability, T/C","second compound 1 µM, first compound 0.0316 µM",91.8%
same,"viability, T/C","second compound 1 µM, first compound 0.1 µM",70.5%
same,"viability, T/C","second compound 3.16 µM, first compound 0.000316 µM",102%
same,"viability, T/C","second compound 3.16 µM, first compound 0.001 µM",105%
same,"viability, T/C","second compound 3.16 µM, first compound 0.00316 µM",97.5%
same,"viability, T/C","second compound 3.16 µM, first compound 0.01 µM",123%
same,"viability, T/C","second compound 3.16 µM, first compound 0.0316 µM",111%
same,"viability, T/C","second compound 3.16 µM, first compound 0.1 µM",58.5%
same,"viability, T/C","second compound 10 µM, first compound 0.000316 µM",112%
same,"viability, T/C","second compound 10 µM, first compound 0.001 µM",110%
same,"viability, T/C","second compound 10 µM, first compound 0.00316 µM",111%
same,"viability, T/C","second compound 10 µM, first compound 0.01 µM",80.7%
same,"viability, T/C","second compound 10 µM, first compound 0.0316 µM",102%
same,"viability, T/C","second compound 10 µM, first compound 0.1 µM",70.3%
COc1cccc2c1C(=O)c1c(O)c3c(c(O)c1C2=O)CC(O)(C(=O)CO)CC3OC1CC(N)C(O)C(C)O1 (centres undefined),"viability, T/C",compound 0.0316 µM,98.8% and 96% and 104%
same,"viability, T/C",compound 0.1 µM,83.9% and 92.9% and 87.7%
same,"viability, T/C",compound 0.316 µM,62.9% and 125% and 50.8%
same,"viability, T/C",compound 1 µM,17.3% and 111% and 20.5%
same,"viability, T/C",compound 3.16 µM,0.93% and 18.7% and 1.37%
same,"viability, T/C",compound 10 µM,2.95% and 3.23% and 2.45%
same,IC50,curve of compound,0.421 µM and 2.09 µM and 0.336 µM
